# Assay results from US9814696B2, “Use of coumarin derivatives for the preparation of drugs for treating skin diseases” (UNIVERSITE PIERRE ET MARIE CURIE (PARIS 6), priority 2011, dated 2017).
# Columns and labels:
# Assay type in all cases: biochemical
# KLK7 = KLK7 (Homo sapiens, UniProt P49862); test: KLK7 enzyme inhibition assay, fluorogenic substrate Suc-Leu-Leu-Val-Tyr-AMC; settings: for IC50: Table A, read-out: IC50 (μM) KLK7; for IC50 / inhibition at 50 µM / inhibition at 100 µM / inhibition at 10 µM: 37° C., 15 min of incubation, pH 8; for selective activity against enzyme: KLK7: Table B, among KLK5, KLK7 and KLK14
# Description: (§1) Kallikreins KLK5, KLK7 and KLK14 activities were determined by monitoring the hydrolysis of the appropriate fluorogenic substrate (λexc=355, λem=460 nm) for 15 min at 37° C. in the presence of the untreated kallikrein (control) or kallikrein that had been incubated with a test compound. Substrate and compounds were previously dissolved in DMSO, with the final solvent concentration kept constant at 2% (v/v) (KLK 5 and 14), and 4% (v/v) (KLK7). The composition of the activity buffers (pH 8.0) was 100 mM Tris-HCl, 150 mM NaCl, 0.01% (v/v) Tween 20 for the KLK5 assay, and 100 mM Tris-HCl, 1M NaCl, 0.01% (v/v) Tween 20 in the KLK 7 and 14 assays. The final concentrations were 0.6 nM (KLK5) and 100 μM (Boc-Val-Pro-Arg-AMC) (KLK5 assay), 8 nM (KLK7) and 40 μM (Suc-Leu-Leu-Val-Tyr-AMC, AMC: 7-amino-4-methyl-coumarin) (KLK7 assay), and 0.17 nM (KLK14) and 10 μM (Boc-Val-Pro-Arg-AMC) (KLK14 assay). Using the appropriate substrate, the coumarinic compounds (0.01-100 μM) were tested in duplicate for each inhibitor concentration to detect their inhibitory potential. The enzyme and the inhibitors were incubated for 15 min before the determination of the enzyme activity. Initial rates determined in control experiments (V0) were considered to be 100% of the peptidase activity; initial rates below 100% were considered to be inhibitions. The inhibitory activity of compounds was expressed as IC50 (inhibitor concentrations giving 50% inhibition). The values of IC50 were calculated by fitting the experimental data to the equation: % Inhibition=100×(1−Vi/V0)=100[I]0/(IC50+[I]0), or equation: % Inhibition=100[I]0^nH/(IC50^nH+[I]0^nH),nH is the Hill number.
# (§2) The tests were realized at 37° C. after 15 min of incubation at pH 8.
# KLK14 = molecular target: T1, KLK14 (Homo sapiens, UniProt Q9P0G3); test: KLK14 enzyme inhibition assay, fluorogenic substrate Boc-Val-Pro-Arg-AMC; settings: for selective activity against enzyme: KLK14: Table B, among KLK5, KLK7 and KLK14
# T1 sequence (Q9P0G3 25-251): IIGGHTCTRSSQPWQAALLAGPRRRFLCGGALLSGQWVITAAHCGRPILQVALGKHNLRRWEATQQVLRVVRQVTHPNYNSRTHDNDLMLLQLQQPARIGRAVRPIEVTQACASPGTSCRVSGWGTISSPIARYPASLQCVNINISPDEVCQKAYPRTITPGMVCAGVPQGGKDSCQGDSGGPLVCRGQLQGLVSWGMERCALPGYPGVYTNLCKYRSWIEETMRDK
# Description: as §1, §2
# KLK5 = molecular target: T2, KLK5 (Homo sapiens, UniProt Q9Y337); test: KLK5 enzyme inhibition assay, fluorogenic substrate Boc-Val-Pro-Arg-AMC; settings: for IC50: Table A, read-out: IC50 (μM) KLK5; for IC50 / inhibition at 100 µM / inhibition at 50 µM: 37° C., 15 min of incubation, pH 8; for selective activity against enzyme: KLK5: Table B, among KLK5, KLK7 and KLK14
# T2 sequence (Q9Y337 23-293): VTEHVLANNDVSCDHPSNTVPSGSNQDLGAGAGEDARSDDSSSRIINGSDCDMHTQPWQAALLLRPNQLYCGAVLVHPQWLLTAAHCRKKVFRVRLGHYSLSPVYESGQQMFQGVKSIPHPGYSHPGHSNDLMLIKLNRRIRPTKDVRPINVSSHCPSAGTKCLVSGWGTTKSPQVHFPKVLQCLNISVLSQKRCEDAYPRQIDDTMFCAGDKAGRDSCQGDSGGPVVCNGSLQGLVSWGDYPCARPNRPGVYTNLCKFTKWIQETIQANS
# Description: as §1, §2
# [1] = 37° C., 15 min of incubation, pH 8
# Chain of KLK7 (P49862 30-253): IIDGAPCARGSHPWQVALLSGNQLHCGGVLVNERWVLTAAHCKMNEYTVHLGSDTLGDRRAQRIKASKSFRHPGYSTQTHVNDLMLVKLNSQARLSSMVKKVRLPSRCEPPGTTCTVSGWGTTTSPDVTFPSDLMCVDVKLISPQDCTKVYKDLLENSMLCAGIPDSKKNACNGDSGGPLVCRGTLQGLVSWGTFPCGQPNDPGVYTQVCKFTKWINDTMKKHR
Structure (SMILES),IC50 (KLK7) [µM],inhibition at 50 µM (KLK14; [1]) [%],selective activity against enzyme: KLK7 (KLK7),inhibition at 100 µM (KLK14; [1]) [%],further results
NCc1ccc2oc(=O)c(C(=O)Oc3ccccc3)cc2c1 [LP71],,,,,IC50 (KLK5): 182 ± 14 µM
O=C(Oc1cc(F)ccc1Br)c1cc2cc(CCl)ccc2oc1=O [CFL15],0.352 ± 0.055,,KLK7,45,inhibition at 100 µM (KLK5): 47%
Cc1cc(OC(=O)c2cc3cc(CCl)ccc3oc2=O)ccc1Cl [MFS35],,,,71,inhibition at 100 µM (KLK7): 55%; selective activity against enzyme: KLK14 (KLK14): KLK14
CC(=O)OCc1ccc2oc(=O)c(C(=O)Oc3cccc(Cl)c3)cc2c1 [LP46],,,,,"IC50 (KLK14; Table A, 37° C., 15 min of incubation, pH 8, read-out: IC50 (μM) KLK14): 31 ± 6 µM; inhibition at 50 µM (KLK5): 31%"
NCc1ccc2oc(=O)c(C(=O)Oc3cccc(Br)c3)cc2c1 [IK48],9.7 ± 1.3,32,,,inhibition at 50 µM (KLK5): 27%
CC(=O)NCc1ccc2oc(=O)c(C(=O)Oc3cccc(Br)c3)cc2c1 [IK49],,,KLK7,,inhibition at 10 µM (KLK7): 54%
O=C(Oc1cccc(Cl)c1)c1cc2cc(CCl)ccc2oc1=O [LP8],0.103 ± 0.005,,KLK7,40,inhibition at 100 µM (KLK5): 49%
O=C(Oc1ccccc1)c1cc2cc(O)c(O)cc2oc1=O [MH22],,85,,,inhibition at 50 µM (KLK7): 100%; inhibition at 50 µM (KLK5): 32%
O=C(Oc1ccccc1)c1cc2cc(CO)ccc2oc1=O [MH30],33.2 ± 1.4,32,,,inhibition at 50 µM (KLK5): 25%
"CC(=O)OCc1ccc2oc(=O)c(C(=O)Oc3ccccc3I)cc2c1 [SMB28, 2-iodophenyl 6-acetoxymethyl-2-oxo-2H-1-benzopyran-3-carboxylate]",82.2 ± 13.2,,KLK7,,
CC(=O)OCc1ccc2oc(=O)c(C(=O)Oc3cccc(F)c3)cc2c1 [IK10],,,,,inhibition at 50 µM (KLK5): 23%; selective activity against enzyme: KLK5 (KLK5): KLK5
CCOC(=O)c1cc2cc(COC(C)=O)ccc2oc1=O [LP43],,,,49,inhibition at 100 µM (KLK7): 30%; inhibition at 100 µM (KLK5): 49%
CC(=O)OCc1ccc2oc(=O)c(C(=O)Oc3cc(F)ccc3Br)cc2c1 [CFL17],,50,,,inhibition at 100 µM (KLK7): 33%; selective activity against enzyme: KLK14 (KLK14): KLK14
CS(=O)(=O)NCc1ccc2oc(=O)c(C(=O)Oc3cccc(Cl)c3)cc2c1 [MH24],33.2 ± 1.4,42,,,
CC(=O)NCc1ccc2oc(=O)c(C(=O)Oc3ccc(Br)cc3)cc2c1 [MH52],,,KLK7,,inhibition at 10 µM (KLK7): 58%
CC(=O)c1cc2cc(C)ccc2oc1=O [Compound D9],,,,40,inhibition at 100 µM (KLK5): 80%; selective activity against enzyme: KLK5 (KLK5): KLK5

# Continued, in another order:
IC50 (KLK7) [µM],inhibition at 50 µM (KLK14; [1]) [%],selective activity against enzyme: KLK7 (KLK7),inhibition at 100 µM (KLK14; [1]) [%],Structure (SMILES),further results
5.01 ± 0.4,60,,,CC(=O)OCc1ccc2oc(=O)c(C(=O)Oc3cc(Cl)ccc3Cl)cc2c1 [CFL4],
,27,,,CC(=O)OCc1ccc2oc(=O)c(C(=O)Oc3ccccc3Cl)cc2c1 [SMB27],inhibition at 50 µM (KLK7): 42%
,,,33,O=C(Oc1cc(F)ccc1F)c1cc2ccccc2oc1=O [CFL7],inhibition at 100 µM (KLK7): 33%
,,KLK7,,CC(=O)OCc1ccc2oc(=O)c(C(=O)Oc3ccccc3Br)cc2c1 [SMB26],inhibition at 10 µM (KLK7): 52%
0.128 ± 0.03,,KLK7,,O=C(Oc1cncc(Cl)c1)c1cc2cc(CCl)ccc2oc1=O [LP2],
1.44 ± 0.02,,,46,O=C(Oc1ccccc1[N+](=O)[O-])c1cc2cc(CCl)ccc2oc1=O [LP60],IC50 (KLK5): 112 ± 6 µM
1.9 ± 0.1,,,35,O=C(Oc1ccccc1I)c1cc2cc(CCl)ccc2oc1=O [LP15],
